Bounds are passed on as bounds.

This passage reports IC50 and melting point results from patent publication US8906909B2 (Curis, Inc., priority 2009, dated 2014).

For one data set, the target named is T1, PI3Kα (p110α/p85α) (Homo sapiens, UniProt P42336).
T1 construct: N-terminal histidine-tagged recombinant full-length human p110α; His tag (N); made in house; host or cells: Baculovirus-infected Sf9 insect cells
In words: PI3Kα fluorescence polarization assay. Format: biochemical. The settings on record: 10 μM ATP. The method, then:
(a) An In Vitro Assay which Determines the Ability of a Test Compound to Inhibit PI3Kα.
Activity of PI3Kα was measured using fluorescence polarization assay. PI3Kα, a complex of N-terminal histidine-tagged recombinant full-length human p110α and untagged recombinant full length human p85α were coexpressed in a Baculovirus infected Sf9 cell expression system. (GenBank Accession No. for p110α, U79143; for p85α, XM—043865). The proteins are purified by one-step affinity chromatography using glutathione-agarose. A competition assay was performed to measure the amount of PIP3 generated from PIP2 in the presence of purified recombinant PI3Kα (p110α/p85α). PI3K a was incubated with 10 μM PIP2 substrate in the reaction buffer (20 mM HEPES, pH 7.5, 10 mM NaCl, 4 mM MgCl2, 2 mM DTT, 10 μM ATP and 1% DMSO) for 1 hour at 30° C. The reaction product was then mixed with a PIP3 detector protein and the fluorescent PIP3 probe. Polarization (mP) values decrease as fluorescent probe binding to the PIP3 detector is displaced by PIP3 produced by enzymatic activity and the amount of unbound fluorescent probe in the mixture increases. Polarization degrees (mP) value was determined using microplate reader with background subtraction.
A general note: Fluorescence polarisation rises when a labelled molecule tumbles more slowly, as on binding a larger partner.

Data set [1] relates to HDACs (HeLa cell nuclear extracts). In words: HDAC enzymatic activity, Biomol Color de Lys system. In kind it is biochemical. The procedure, abridged: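 HeLa nuclear extract as HDAC source with Color de Lys substrate in 50 mM Tris/Cl pH 8.0, 137 mM NaCl, 2.7 mM KCl, 1 mM MgCl2. Serially diluted compounds reacted 1 h at 25 °C, then developer added; fluorescence (Ex 350–380/Em 440–460) fitted sigmoidally for IC50.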

Another data set relates to HCC1806 cells. Kind of data set: Cell proliferation assay Method B, HCC1806. Format: cell-based. To be noted: Homo sapiens, Breast, 72 hours, read-out: antiproliferative activity IC50, HCC1806. The method, then:
(§1) Cancer cell lines were plated at 5,000 to 10,000 per well in 96-well flat bottomed plates with various concentration of compounds. The cells were incubated with compounds for 72 hours in the presence of 0.5% of fetal bovine serum. Growth inhibition was accessed by adenosine triphosphate (ATP) content assay using Promega CellTiter-Glo kit. Promega CellTiter-Glo kit is an ATP monitoring system based on firefly luciferase. Briefly, 16 μl of mammalian cell lysis and substrate solution was added to 84 μl of culture medium per well to lyse the cells and stabilize the ATP. The mixture was shaken and incubated for 30 minutes and subsequently the luminescence was measured.

Another data set concerns SKBr3 cells. In words: Cell proliferation assay Method B, SKBr3. Format: cell-based. The settings on record: Homo sapiens, SK-BR-3, Breast, 72 hours, read-out: antiproliferative activity IC50, SKBr3. As to the method:
as §1

The next data set deals with BT474 cells. Kind of data set: Cell proliferation assay Method B, BT474. Format: cell-based. To be noted: Homo sapiens, BT-474; Breast; Method B; 72 hours; read-out: antiproliferative activity IC50, BT474. The procedure, abridged: (§2)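 After 72 hours of exposure to test compounds at multiple concentrations, with fetal bovine serum held at 0.5%, cells were lysed to stabilise ATP and luminescence was measured to gauge growth inhibition.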

In a further data set the test system is MDA-MB-361 cells. Kind of data set: Cell proliferation assay Method B, MDA-MB-361. Format: cell-based. To be noted: Homo sapiens, Breast, 72 hours, read-out: antiproliferative activity IC50, MDA-MB-361. The method, then:
as §1

The next data set relates to MDA-MB-453 cells. In words: Cell proliferation assay Method B, MDA-MB-453. Format: cell-based. The settings on record: Homo sapiens, Breast, 72 hours, read-out: antiproliferative activity IC50, MDA-MB-453. The method, then:
as §1

For another data set, the system named is MCF-7 cells. In words: Cell proliferation assay Method B, MCF-7. Format: cell-based. To be noted: Homo sapiens, MCF7, Breast, 72 hours, read-out: antiproliferative activity IC50, MCF-7. As to the method:
as §1

The test system of the next data set is T47D cells. Kind of data set: Cell proliferation assay Method B, T47D. Format: cell-based. To be noted: Homo sapiens, Breast, 72 hours, read-out: antiproliferative activity IC50, T47D. As to the method: as §1
For a further data set, the system named is ZR-75-1 cells. In words: Cell proliferation assay Method B, ZR-75-1. Format: cell-based. The settings on record: Homo sapiens, Breast, 72 hours, read-out: antiproliferative activity IC50, ZR-75-1. As to the method: as §1
Another data set relates to MOLT-4 cells. In words: Cell proliferation assay Method B, MOLT-4. Format: cell-based. The settings on record: Homo sapiens, ALL, 72 hours, read-out: antiproliferative activity IC50, MOLT-4. The method, then: as §1
Another data set deals with HL-60 cells. Kind of data set: Cell proliferation assay Method B, HL-60. In kind it is cell-based. The settings on record: Homo sapiens, AML, 72 hours, read-out: antiproliferative activity IC50, HL-60. As to the method: as §1
A further data set deals with U937 cells. Kind of data set: Cell proliferation assay Method B, U937. In kind it is cell-based. To be noted: Homo sapiens, U-937, AML, 72 hours, read-out: antiproliferative activity IC50, U937. The method, then: as §1
A further data set relates to THP-1 cells. In words: Cell proliferation assay Method B, THP-1. In kind it is cell-based. To be noted: Homo sapiens, AML, 72 hours, read-out: antiproliferative activity IC50, THP-1. As to the method: as §1
A further data set concerns MV-4-11 cells. Kind of data set: Cell proliferation assay Method B, MV-4-11. The settings on record: Homo sapiens, MV4-11, AML, 72 hours, read-out: antiproliferative activity IC50, MV-4-11. Format: cell-based. The method, then:
as §1

In a further data set the test system is Pfeiffer cells. In words: Cell proliferation assay Method B, Pfeiffer. The settings on record: Homo sapiens, NHL, 72 hours, read-out: antiproliferative activity IC50, Pfeiffer. In kind it is cell-based. The method, then:
as §1

For the next data set, the system named is Raji cells. Kind of data set: Cell proliferation assay Method B, Raji. In kind it is cell-based. The settings on record: Homo sapiens, NHL, 72 hours, read-out: antiproliferative activity IC50, Raji. The method, then:
as §1

In the next data set the test system is Daudi cells. In words: Cell proliferation assay Method B, Daudi. The settings on record: Homo sapiens, NHL, 72 hours, read-out: antiproliferative activity IC50, Daudi. In kind it is cell-based. The method, then: as §1
The next data set concerns K562 cells. In words: Cell proliferation assay Method B, K562. In kind it is cell-based. To be noted: Homo sapiens, CML, 72 hours, read-out: antiproliferative activity IC50, K562. As to the method: as §1
Another data set concerns RPMI-8226 cells. In words: Cell proliferation assay Method B, RPMI-8226. In kind it is cell-based. The settings on record: Homo sapiens, Multiple Myeloma, Method B, 72 hours, read-out: antiproliferative activity IC50, RPMI-8226. The procedure, abridged: as §2
The test system of a further data set is ARH77 cells. In words: Cell proliferation assay Method B, ARH77. The settings on record: Homo sapiens, ARH-77, Multiple Myeloma, 72 hours, read-out: antiproliferative activity IC50, ARH77. In kind it is cell-based. As to the method:
as §1

A further data set concerns L1210 cells. Kind of data set: Cell proliferation assay Method B, L1210. Format: cell-based. To be noted: Mouse LL, 72 hours, read-out: antiproliferative activity IC50, L1210. As to the method: as §1
The next data set deals with P388 D1 cells. In words: Cell proliferation assay Method B, P388 D1. The settings on record: P388D1, Mouse Lymphoma, 72 hours, read-out: antiproliferative activity IC50, P388 D1. Format: cell-based. The method, then:
as §1

Another data set has as its system MDA-MB-231 cells. Kind of data set: Cell proliferation assay Method B, MDA-MB-231. In kind it is cell-based. The settings on record: Homo sapiens, Breast, Method B, 72 hours, read-out: antiproliferative activity IC50, MDA-MB-231 (second listing, r32). As to the method:
as §1

In another data set the test system is HCC1500 cells. Kind of data set: Cell proliferation assay Method B, HCC1500. To be noted: Breast, 72 hours, read-out: antiproliferative activity IC50, HCC1500. Format: cell-based. As to the method: as §1
A further data set has as its system UACC-893 cells. In words: Cell proliferation assay Method B, UACC-893. In kind it is cell-based. The settings on record: Homo sapiens, Breast, 72 hours, read-out: antiproliferative activity IC50, UACC-893. The method, then: as §1
Another data set has as its system MDA-MB-468 cells. Kind of data set: Cell proliferation assay Method B, MDA-MB-468. The settings on record: Homo sapiens, Breast, Method B, 72 hours, read-out: antiproliferative activity IC50, MDA-MB-468. Format: cell-based. The method, then: as §1
The test system of another data set is SUP-B15 cells. In words: Cell proliferation assay Method B, SUP-B15. To be noted: Homo sapiens, ALL, 72 hours, read-out: antiproliferative activity IC50, SUP-B15. Format: cell-based. As to the method: as §1
A further data set relates to MEG-01 cells. In words: Cell proliferation assay Method B, MEG-01. In kind it is cell-based. The settings on record: Homo sapiens, CML, 72 hours, read-out: antiproliferative activity IC50, MEG-01. As to the method:
as §1

T1 sequence (P42336 whole entry): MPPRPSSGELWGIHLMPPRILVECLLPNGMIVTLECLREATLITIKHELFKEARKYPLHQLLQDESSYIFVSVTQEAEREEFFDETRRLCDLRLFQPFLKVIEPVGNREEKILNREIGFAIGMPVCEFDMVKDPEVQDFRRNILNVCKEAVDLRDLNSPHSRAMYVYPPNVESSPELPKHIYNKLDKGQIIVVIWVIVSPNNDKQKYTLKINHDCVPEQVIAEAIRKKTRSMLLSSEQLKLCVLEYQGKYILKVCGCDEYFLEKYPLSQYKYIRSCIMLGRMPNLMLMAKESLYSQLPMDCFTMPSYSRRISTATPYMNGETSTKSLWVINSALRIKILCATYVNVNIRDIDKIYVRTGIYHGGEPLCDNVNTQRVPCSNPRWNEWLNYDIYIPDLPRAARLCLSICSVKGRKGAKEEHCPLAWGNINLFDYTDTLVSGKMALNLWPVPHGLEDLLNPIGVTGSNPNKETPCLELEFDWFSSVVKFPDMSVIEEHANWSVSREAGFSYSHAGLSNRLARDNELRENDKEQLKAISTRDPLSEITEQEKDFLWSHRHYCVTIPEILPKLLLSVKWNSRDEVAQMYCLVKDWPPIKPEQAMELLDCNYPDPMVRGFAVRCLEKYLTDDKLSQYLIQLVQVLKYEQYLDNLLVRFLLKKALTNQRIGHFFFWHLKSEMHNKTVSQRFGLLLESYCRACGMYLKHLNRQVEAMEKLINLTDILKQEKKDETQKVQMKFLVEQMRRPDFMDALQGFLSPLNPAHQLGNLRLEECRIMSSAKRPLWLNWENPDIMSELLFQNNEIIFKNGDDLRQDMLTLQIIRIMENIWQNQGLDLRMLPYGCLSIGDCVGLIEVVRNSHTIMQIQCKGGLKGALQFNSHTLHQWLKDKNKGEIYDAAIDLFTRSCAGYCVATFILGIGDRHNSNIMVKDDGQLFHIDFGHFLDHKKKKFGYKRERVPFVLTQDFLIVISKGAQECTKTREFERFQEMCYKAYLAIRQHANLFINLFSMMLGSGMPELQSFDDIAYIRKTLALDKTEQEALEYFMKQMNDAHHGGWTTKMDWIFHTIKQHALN
T1 sequence (P27986 whole entry partner): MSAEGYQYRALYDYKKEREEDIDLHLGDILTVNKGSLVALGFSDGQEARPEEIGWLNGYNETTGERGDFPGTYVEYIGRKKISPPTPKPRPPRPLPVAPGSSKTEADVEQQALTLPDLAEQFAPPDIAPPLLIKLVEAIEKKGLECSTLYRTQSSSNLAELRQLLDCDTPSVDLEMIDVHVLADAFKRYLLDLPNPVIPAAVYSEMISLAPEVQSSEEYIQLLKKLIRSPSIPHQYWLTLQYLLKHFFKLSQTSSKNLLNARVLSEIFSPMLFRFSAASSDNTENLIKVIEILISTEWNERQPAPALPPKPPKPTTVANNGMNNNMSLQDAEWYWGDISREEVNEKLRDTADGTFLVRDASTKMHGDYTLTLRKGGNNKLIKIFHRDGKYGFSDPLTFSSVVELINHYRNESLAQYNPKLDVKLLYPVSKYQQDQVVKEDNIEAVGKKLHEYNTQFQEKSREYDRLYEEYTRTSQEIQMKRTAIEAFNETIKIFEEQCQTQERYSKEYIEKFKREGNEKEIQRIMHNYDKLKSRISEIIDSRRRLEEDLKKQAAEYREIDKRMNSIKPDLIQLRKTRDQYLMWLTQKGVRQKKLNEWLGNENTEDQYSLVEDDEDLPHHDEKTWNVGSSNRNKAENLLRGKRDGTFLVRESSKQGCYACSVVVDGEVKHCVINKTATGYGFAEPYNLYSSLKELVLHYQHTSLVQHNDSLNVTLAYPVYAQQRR

`CS(=O)(=O)N1CCN(Cc2cc3nc(-c4cccc5c4cnn5CCCCCC(=O)NO)nc(N4CCOCC4)c3s2)CC1` [Compound 4] had a melting point of 186 to 187 °C. Further, the concentration for half-maximal inhibition (IC50) on PI3Kα (p110α/p85α) was above 10000 nM. This molecule also displayed an IC50 in [1] below 100 nM.
In the case of `CNc1ccc(-c2nc(N3CCOCC3)c3sc(CN(C)c4ncc(C(=O)NO)cn4)cc3n2)cn1` [Compound 111, N-Hydroxy-2-(methyl((2-(6-(methylamino)pyridin-3-yl)-4-morpholinothieno[3,2-d]pyrimidin-6-yl)methyl)amino)pyrimidine-5-carboxamide], the IC50 was below 100 nM in data set [1]; 10 to 100 nM in the data set on HCC1806 cells; 10 to 100 nM in the data set on SKBr3 cells; below 10 nM in the data set on BT474 cells; below 10 nM with MDA-MB-361 cells; below 10 nM in the data set on MDA-MB-453 cells. Moreover, the IC50 with MCF-7 cells was below 10 nM; with T47D cells, below 10 nM; with ZR-75-1 cells it was 10 to 100 nM; in the data set on MOLT-4 cells it was below 10 nM; with HL-60 cells, below 10 nM; in the data set on U937 cells, below 10 nM. Besides, the IC50 in the data set with THP-1 cells was 10 to 100 nM; in the data set on MV-4-11 cells, below 10 nM; in the data set with Pfeiffer cells it was below 10 nM; in the data set on Raji cells, 10 to 100 nM; in the data set with Daudi cells it was below 10 nM; in the data set on K562 cells, 10 to 100 nM. The IC50 in the data set on RPMI-8226 cells, in the data set with ARH77 cells, with L1210 cells and with P388 D1 cells was below 10 nM throughout.
On to `COc1ccc(-c2nc(N3CCOCC3)c3sc(CN(C)c4ncc(C(=O)NO)cn4)cc3n2)cn1` [Compound 236, N-Hydroxy-2-(((2-(6-methoxypyridin-3-yl)-4-morpholinothieno[3,2-d]pyrimidin-6-yl)methyl)(methyl)amino)pyrimidine-5-carboxamide], for which the IC50 in [1] is below 100 nM; with MDA-MB-231 cells, 10 to 100 nM; in the data set with HCC1500 cells, below 10 nM; in the data set with HCC1806 cells, 10 to 100 nM; in the data set with SKBr3 cells, 10 to 100 nM; in the data set with BT474 cells, below 10 nM. Further, the IC50 with MDA-MB-361 cells was below 10 nM; in the data set with UACC-893 cells, 10 to 100 nM; in the data set on MDA-MB-453 cells it was below 10 nM; in the data set with MCF-7 cells it was below 10 nM; in the data set on T47D cells, 10 to 100 nM; in the data set on ZR-75-1 cells, 10 to 100 nM. For the same molecule, the half-maximal inhibitory concentration (IC50) in the data set with MDA-MB-468 cells is 10 to 100 nM; in the data set with MOLT-4 cells it was below 10 nM; in the data set on SUP-B15 cells it was below 10 nM; in the data set with HL-60 cells it was below 10 nM; with U937 cells, below 10 nM; in the data set with THP-1 cells, 10 to 100 nM. Also, the IC50 in the data set with MV-4-11 cells is below 10 nM; with Pfeiffer cells, below 10 nM; with Raji cells, 10 to 100 nM; in the data set on Daudi cells, 10 to 100 nM; in the data set on K562 cells, 100 to 1000 nM; in the data set with MEG-01 cells, 10 to 100 nM. The concentration for half-maximal inhibition (IC50) in the data set on RPMI-8226 cells is below 10 nM; with ARH77 cells, 10 to 100 nM; with L1210 cells, 10 to 100 nM; in the data set with P388 D1 cells, 10 to 100 nM.
On to `CS(=O)(=O)N1CCN(Cc2cc3nc(-c4cccc5c4cnn5CCCCC(=O)NO)nc(N4CCOCC4)c3s2)CC1` [Compound 3, N-hydroxy-5-(4-(6-((4-(methylsulfonyl)piperazin-1-yl)methyl)-4-morpholinothieno[3,2-d]pyrimidin-2-yl)-1H-indazol-1-yl)pentanamide], for which the melting point is 139 to 143 °C. Also, the half-maximal inhibitory concentration (IC50) on PI3Kα (p110α/p85α) was above 10000 nM. In [1], this molecule returned an IC50 below 100 nM.

What is called IC50 is the midpoint of a concentration-inhibition curve. Broadly, the melting point is the temperature of the solid-liquid transition.
